# Results published in patent US20220313622A1, “PHYTOCANNABINOIDS FOR PREVENTING OR TREATING NON-ALCOHOLIC FATTY LIVER DISEASE, DYSLIPIDEMIA, AND TYPE 2 DIABETES” (YISSUM RESEARCH DEVELOPMENT COMPANY OF THE HEBREW …, priority 2019, published 2022).
# Assays:
# [1] = test system: high-fat diet-induced obese mice; test: Hepatic steatosis in high-fat diet-induced obese mice; assay type: in vivo, mouse; conditions: 28 days ip, CBG 25 mg/kg/day; for HFD-induced hepatic steatosis (liver triglyceride levels, fat vacuoles and ballooning in hepatocytes): CBD 10 mg/kg/day, alone or combined, FIGS. 5A, B
# Description: (§1) Next, the inventors tested whether the isolated and combined effect of phytocannabinoids has the ability to reverse fatty liver (hepatic steatosis) and improve metabolism in high-fat diet-induced obese mouse. Briefly, six weeks old, male C57Bl/6J mice were fed ad libitum with a high-fat diet (HFD; D12492; 60% of calories from fat, 20% from protein, and 20% from carbohydrates; Research Diets) or a mouse standard diet (STD; NIH no. 31 rodent diet) for 14 weeks. Then, the mice were treated for 28 days with CBD (10 mg/kg/day, ip), CBG (25 mg/kg/day, ip), CBD+CBG (10 mg/kg/day+25 mg/kg/day, ip respectively) or vehicle (EtOH:cremophor:saline; 1:1:18). The mouse groups were labeled as defined here: mice on a STD treated with vehicle (STD-Veh), mice on a HFD treated with vehicle (HFD-Veh), mice on a HFD treated with CBD (HFD-CBD), mice on a HFD treated with CBG (HFD-CBG), and mice on a HFD treated with CBD+CBG (HFD-CBD+CBG).
# Hepatic steatosis (Fatty liver) was measured by (i) quantifying the amount of triglycerides and cholesterol in the liver by using a specific lipid extraction method followed by colorimetric chemical analyses using the Cobas C111 Chemistry Analyzer (Roche, Germany), and (ii) evaluating the reversal of fatty liver by histology. Briefly, paraffin-embedded liver sections (5 tiM) were be used to evaluate hepatic morphology (using H & E staining).
# [2] = test system: high-fat diet-induced obese mice; test: Glucose and insulin homeostasis in high-fat diet-induced obese mice; assay type: in vivo, mouse; conditions: 28 days ip, CBG 25 mg/kg/day; for HFD-induced hyperglycemia (fasting blood glucose levels) / glucose tolerance (intraperitoneal glucose tolerance test) / serum insulin levels (hyperinsulinemia): CBD 10 mg/kg/day; for HFD-induced hyperglycemia (fasting blood glucose levels) / glucose tolerance (intraperitoneal glucose tolerance test): alone or combined; for HFD-induced hyperglycemia (fasting blood glucose levels): FIG. 6A; for glucose tolerance (intraperitoneal glucose tolerance test): FIG. 6B, C; for serum insulin levels (hyperinsulinemia): FIG. 7A
# Description: as §1
# Glucose and insulin homeostasis was assessed by (i) measuring fasting blood glucose (Elite glucometer, Bayer, Germany) and serum insulin (Ultra-Sensitive Mouse Insulin ELISA kit, EMD Millipore, MA) levels, (ii) evaluating Homeostatic Model Assessment for Insulin Resistance (HOMA-IR), and (iii) performing intraperitoneal glucose tolerance test.
# [3] = test system: high-fat diet-induced obese mice; test: Lipid balance (circulating triglycerides and cholesterol) in high-fat diet-induced obese mice; assay type: in vivo, mouse; conditions: 28 days ip; for serum triglycerides: CBD 10 mg/kg/day, FIG. 8A
# Description: as §1
# Lipid balance was assessed by evaluating the levels of low-density lipoprotein (LDL)-cholesterol, total cholesterol and triglycerides by using Cobas C111 Chemistry Analyzer (Roche, Germany).
# [4] = test system: high-fat diet-induced obese mice; test: Antiobesity effect (fat and lean mass, EchoMRI) in high-fat diet-induced obese mice; assay type: in vivo, mouse; conditions: 28 days ip; CBG 25 mg/kg/day; FIG. 9B, C
# Description: as §1
# Antiobesity effect was assessed by measuring body weight. Total fat and lean masses were determined at the end of the treatment by EchoMRI-100 (Echo Medical Systems LLC, Houston Tex.).
# obese mice = conditions: cited from earlier work
# [5] = test system: human hepatoma HepG2 cells; test: Oleate:Palmitate-induced lipid accumulation in hepatocytes (Nile-Red); assay type: cell-based; conditions: CBD 20 μM; 0.3 mM oleate:palmitate 2:1; 24 hr; FIG. 1
# Description: To test whether CBG and/or CBD have the ability to reduce lipid accumulation in hepatocytes, we have utilized an in vitro model of fat accumulation in hepatocytes. Briefly, human hepatoma HepG2 cells were maintained at 37° C. in 5% CO2 in DMEM medium supplemented with 10% FCS, 2 mM 1-glutamine, 1 mM sodium pyruvate, 100 U/mL penicillin and […] streptomycin. Free fatty acids (2:1, molar ratio, oleic and palmitic acids) were mixed with bovine serum albumin (BSA). Cells were incubated with fatty acid-BSA complex in FCS-free culture medium at 0.3 mM final concentration of fatty acid and 1% of BSA. Control cell cultures were incubated with medium containing the vehicle. Compounds were tested in a range of concentrations (as detailed in each figure) in the presence/absence of fatty acids. The synergistic effect between two compounds was also tested once validating their individual effect. After 24 hr of incubation with the compounds, the cells were washed, incubated with 1 μg/mL mixture of Nile-Red/Hoechst solution for 15 mins at 37° C. protected from light. Fluorescence was measured by the Cytation-3 plate reader at ex:488 nm/em:550 for Nile-Red and Hoechst, respectively. Results were normalized to total protein levels of each well, and presented as a change in the accumulation of lipids in comparison with Vehicle-treated group.
# rats on high-fat diets = conditions: cited from earlier work
# mice = conditions: cited from earlier work
Compound,"HFD-induced hepatic steatosis (liver triglyceride levels, fat vacuoles and ballooning in hepatocytes) [1]",liver cholesterol levels ([1]; FIG. 5C),HFD-induced hyperglycemia (fasting blood glucose levels) [2],glucose tolerance (intraperitoneal glucose tolerance test) [2],serum insulin levels (hyperinsulinemia) [2],HOMA-IR ([2]; FIG. 7B),serum triglycerides ([3]; CBG 25 mg/kg/day),"total circulating cholesterol levels ([3]; CBG 25 mg/kg/day alone or with CBD 10 mg/kg/day, FIG. 8B)","LDL-Cholesterol levels ([3]; CBG 25 mg/kg/day, FIG. 8C)",fat mass [4],lean mass [4],insulin sensitivity (obese mice),triglyceride (TG) accumulation within the livers (obese mice),lipid accumulation in hepatocytes [5],weight gain (rats on high-fat diets),development of alcohol-induced hepatosteatosis (mice)
"CCCCCc1cc(O)c(C/C=C(\C)CCC=C(C)C)c(O)c1 [CBG, cannabigerol]",significantly attenuated,trend toward reduction,significantly normalized,significant improvement,trend toward reduction,normalization,Reduction,significantly reduced,significant reduction,significant reduction,increased,,,,,
"CCCc1cc(O)c2c(c1)OC(C)(C)[C@@H]1CCC(C)=C[C@@H]21 [THCV, Δ^9-tetrahydrocannabivarin]",,,,,,,,,,,,improves insulin sensitivity,decreases,,,
"C=C(C)[C@@H]1CCC(C)=C[C@H]1c1c(O)cc(CCCCC)cc1O [CBD, cannabidiol, reference compound]",significantly attenuated,,significantly normalized,significant improvement,ineffective in reducing hyperinsulinemia,,Reduction,,,,,,,significantly reduce lipid accumulation,inhibits weight gain,inhibits
